Data as given in patent publication US20210221866A1, “PROTEASE-RESISTANT LIPIDATED GLP-1 ANALOGS” (MEDIMMUNE LIMITED, priority 2015, published 2021).
Where two headings read alike, the source gives them in different places. Values belong to the compound of their own block, whether it stands above or below them. Numbered stars: 1 amine (or outer) side, 2 acyl side, 3 side chain; on linkers, the order of the positions; unused ones are H or OH. Square brackets hold non-standard residues; d marks the D form. Side chains are listed from the residue outwards. Peptide text beside a SMILES is read from it. * marks the point of attachment. γGlu = O=C(O)[C@H](CCC(=O)[*:2])N[*:1]; αMeF = C[C@](N)(Cc1ccccc1)C(=O)O; αMeK = C[C@](N)(CCCCN)C(=O)O; Lauroyl = CCCCCCCCCCCC(=O)*; αMeS = C[C@](N)(CO)C(=O)O; AEEA = NCCOCCOCC(=O)O; Aib = CC(C)(N)C(=O)O

What was measured:
[1] = tested on: FASSIF/Pancreatin® activated with 100 μg/mL human enterokinase; assay: Proteolytic resistance to FASSIF/Pancreatin following full zymogen activation with enterokinase; assay type: in vitro ADME; conditions: t = 0; 37° C.
Method: A fresh suspension of FASSIF/P (Fasted-State Simulated Intestinal Fluid+USP Pancreatin®) was prepared according to that described by Galia, Nicolaides, Hörter, Lobenberg, Reppas and Dressman: Pharm. […] To the resulting preparation was added human enterokinase (100 μg/mL) to ensure the potential for full zymogen activity of the mixture which was used immediately without storage. Peptides for evaluation (1.0 mg, ˜250 nmoles) were initially dissolved in pre-warmed FASSIF without Pancreatin® (200 μL) to which was added pre-warmed fresh FASSIF/Pancreatin® ([…]) to initiate potential digestion. Following momentary vortexing of the Eppendorf reaction tube the mixture was incubated at 37° C. in a thermostatic waterbath for the duration of the experiment. 25 μL aliquots of the co-incubated peptide-enzyme mixture were periodically withdrawn (t=0, 5 m, 10 m, 15 m, 30 m, 1 h, 2 h) and quenched immediately by addition to a solution of 10% TFA in 1:1 water/acetonitrile (75 μL) to arrest proteolytic activity.

[2] = biological target: T1, porcine pancreatic pepsin (Sus scrofa, UniProt P00791); assay: Proteolytic resistance to pepsin (% remaining intact peptide, RP-HPLC AUC); assay type: in vitro ADME; conditions: t = 0; 37° C., pH 2.0
T1 construct: purchased Sigma P7012
Method: Pepsin: Lyophilized porcine pancreatic pepsin (Sigma: P7012) was reconstituted to afford a solution of 200 μg/mL (˜500 units/mL) in assay buffer (0.1 M HCl, pH 2.0) to give the enzyme stock solution. […] Ratio enzyme (units):peptide (moles) ˜1:6. […] Ratio enzyme (units):peptide (μmoles) ˜2:1.
Lyophilized porcine pancreatic pepsin (Sigma: P7012) was reconstituted to […] (˜500 units/mL) in assay buffer ([…], pH 2.0) to give the enzyme stock solution.

[3] = Proteolytic resistance to α-chymotrypsin (% remaining intact peptide, RP-HPLC AUC); conditions: recombinant α-chymotrypsin in assay buffer, pH 7.8
Method: (§3) Ratio enzyme (units):peptide (μmoles) ˜1:33. […] Ratio enzyme (units):peptide (μmoles) ˜1:2.5.
(§4) 15 μL aliquots (˜15 μg initial peptide) of the peptide-enzyme mixture are periodically withdrawn (t=0, 30 mins, 1 hr, 2 hr, 4 hr, 8 hr, 24 hr) and quenched immediately by addition to an equal volume (15 μL) of 5% TFA (v/v) in 1:1 water/acetonitrile to arrest proteolytic activity. 20 μL aliquots (˜10 μg initial peptide) are analysed by LC/MS and/or analytical RP-HPLC as follows: LC/MS method: Agilent Polaris C8-A column (4.6×100 mm, 3 micron) elutes with a linear binary gradient of 10-90% MeCN (0.1% TFA v/v) in water (0.1% TFA v/v) over 30 mins at 1.5 mL min^−1 at ambient temperature with detection by both UV absorption at 210 nm and ionization using a Waters 3100 mass detector (ESI^+ mode). Peptide fragments deriving from enzymatic hydrolysis are identified by molecular weight, allowing location of the site of cleavage. Analytical RP-HPLC method: Agilent Polaris C8-A column (4.6×100 mm, 3 micron) elutes with a linear binary gradient of 10-90% MeCN (0.1% TFA v/v) in water (0.1% TFA v/v) over either 10 or 15 mins at 1.5 mL min^−1 at 40° C. with detection by UV absorption at 210 nm. Manual integration (AUC) allows estimation of remaining intact peptide over the time course of the experiment.
(§5) 25 μL aliquots (˜6 μg initial peptide) are analysed by LC/MS and/or analytical RP-HPLC as follows: LC/MS method: Agilent Polaris C8-A column (4.6×100 mm, 3 micron) elutes with a linear binary gradient of 10-90% MeCN (0.1% TFA v/v) in water (0.1% TFA v/v) over 30 mins at 1.5 mL min^−1 at ambient temperature with detection by both UV absorption at 210 nm and ionization using a Waters 3100 mass detector (ESI±mode). Peptide fragments deriving from enzymatic hydrolysis are identified by molecular weight, allowing location of the site of cleavage. Analytical RP-HPLC method: Agilent Polaris C8-A column (4.6×100 mm, 3 micron) elutes with a linear binary gradient of 10-90% MeCN (0.1% TFA v/v) in water (0.1% TFA v/v) over either 10 or 15 mins at 1.5 mL min^−1 at 40° C. with detection by UV absorption at 210 nm. Manual integration (AUC) allows estimation of remaining intact peptide over the time course of the experiment.

[4] = tested on: recombinant α-chymotrypsin; assay: as above; conditions: t = 0; 37° C., pH 7.8
Method: as §3, §4, §5

[5] = biological target: porcine pancreatic trypsin (Sus scrofa, UniProt P00761); assay: Proteolytic resistance to trypsin (% remaining intact peptide, RP-HPLC AUC); assay type: in vitro ADME; conditions: t = 0; 37° C., pH 7.8
Method: Trypsin: Lyophilized porcine pancreatic trypsin (Sigma: T1426) was reconstituted to afford a solution of 100 μg/mL (˜300 units/mL) in assay buffer (50 mM Tris, 10 mM CaCl2), 150 mM NaCl, 1 mM HCl, adjusted to pH 7.8) to give the enzyme stock solution. […] Ratio enzyme (units):peptide (μmoles) ˜1:11. […] Ratio enzyme (units):peptide (μ moles) ˜1.2:1.
Lyophilized porcine pancreatic trypsin (Sigma: T7409) was reconstituted to 200 μg/mL (˜300 units/mL) in assay buffer (50 mM Tris, 10 mM CaCl2), 150 mM NaCl, 1 mM HCl, adjusted to pH 7.8) to give the enzyme stock solution. […] 15 μL aliquots (˜15 μg initial peptide) of the peptide-enzyme mixture were periodically withdrawn (t=0, 30 mins, 1 hr, 2 hr, 4 hr, 8 hr, 24 hr) and quenched immediately by addition to an equal volume (15 μL) of 5% TFA (v/v) in 1:1 water/acetonitrile to arrest proteolytic activity. 20 μL aliquots (˜10 μg initial peptide) were analysed by LC/MS and/or analytical RP-HPLC as follows: LC/MS method: Agilent Polaris C8-A column (4.6×100 mm, 3 micron) eluted with a linear binary gradient of 10-90% MeCN (0.1% TFA v/v) in water (0.1% TFA v/v) over 30 mins at 1.5 mL min^−1 at ambient temperature with detection by both UV absorption at 210 nm and ionization using a Waters 3100 mass detector (ESI^+ mode). Peptide fragments deriving from enzymatic hydrolysis were identified by molecular weight, allowing location of the site of cleavage. Analytical RP-HPLC method: Agilent Polaris C8-A column (4.6×100 mm, 3 micron) eluted with a linear binary gradient of 10-90% MeCN (0.1% TFA v/v) in water (0.1% TFA v/v) over either 10 or 15 mins at 1.5 mL min^−1 at 40° C. with detection by UV absorption at 210 nm. Manual integration (AUC) allowed estimation of remaining intact peptide over the time course of the experiment.
Lyophilized porcine pancreatic trypsin (Sigma: T7409) was reconstituted to 200 μg/mL (˜300 units/mL) in assay buffer (50 mM Tris, 10 mM CaCl2), 150 mM NaCl, 1 mM HCl, adjusted to pH 7.8) to give the enzyme stock solution. […] 25 μL aliquots (˜17 μg initial peptide) of the peptide-enzyme mixture were periodically withdrawn (t=0, 30 mins, 1 hr, 2 hr, 4 hr, 8 hr, 24 hr) and quenched immediately by addition to an equal volume (25 μL) of 5% TFA (v/v) in 1:1 water/acetonitrile to arrest proteolytic activity. 25 μL aliquots (˜8 μg initial peptide) were analysed by LC/MS and/or analytical RP-HPLC as follows: LC/MS method: Agilent Polaris C8-A column (4.6×100 mm, 3 micron) eluted with a linear binary gradient of 10-90% MeCN (0.1% TFA v/v) in water (0.1% TFA v/v) over 30 mins at 1.5 mL min^−1 at ambient temperature with detection by both UV absorption at 210 nm and ionization using a Waters 3100 mass detector (ESI^+ mode). Peptide fragments deriving from enzymatic hydrolysis were identified by molecular weight, allowing location of the site of cleavage. Analytical RP-HPLC method: Agilent Polaris C8-A column (4.6×100 mm, 3 micron) eluted with a linear binary gradient of 10-90% MeCN (0.1% TFA v/v) in water (0.1% TFA v/v) over either 10 or 15 mins at 1.5 mL min^−1 at 40° C. with detection by UV absorption at 210 nm. Manual integration (AUC) allowed estimation of remaining intact peptide over the time course of the experiment.

[6] = biological target: T2, human glucose-dependent insulinotropic peptide receptor (GIPR) (Homo sapiens, UniProt P48546); assay: cAMP assay, human GIPR cells; assay type: cell-based; conditions: Table 9, bis-lipidated peptides
T2 construct: expressed in transfected cells; host or cells: HEK293 cells or CHO cells
T2 sequence (P48546 22-466): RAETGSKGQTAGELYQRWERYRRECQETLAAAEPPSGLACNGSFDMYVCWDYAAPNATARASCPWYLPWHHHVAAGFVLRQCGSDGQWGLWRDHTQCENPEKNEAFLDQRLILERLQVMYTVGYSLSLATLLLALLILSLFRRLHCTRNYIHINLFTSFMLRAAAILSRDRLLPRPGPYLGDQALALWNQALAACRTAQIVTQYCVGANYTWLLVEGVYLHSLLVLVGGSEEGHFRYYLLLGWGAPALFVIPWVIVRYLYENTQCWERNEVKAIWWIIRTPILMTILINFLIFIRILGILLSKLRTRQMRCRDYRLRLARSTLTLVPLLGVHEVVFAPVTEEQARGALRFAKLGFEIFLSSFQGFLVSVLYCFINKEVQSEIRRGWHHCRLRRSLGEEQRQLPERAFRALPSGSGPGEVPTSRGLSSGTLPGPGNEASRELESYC
Method in brief: (§1)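 Peptide-stimulated cAMP measured by two-step HTRF after a 30 min room-temperature incubation with receptor-expressing cells (hGLP-1R, hGIPR at 1×10^5 cells/ml; hGCGR at 2×10^5 cells/ml). Duplicate dilutions; EC50 from 4-parameter logistic fit of % Delta F.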

recombinant Neprilysin = biological target: T3, recombinant Neprilysin (Homo sapiens, UniProt P08473); assay: Proteolytic resistance to neprilysin (% remaining peptide, RP-HPLC AUC); assay type: in vitro ADME; conditions: t = 0 (baseline); 37° C., pH 8.3; enzyme:peptide ~1:33 for non-lipidated, ~1:2.5 for lipidated peptides
T3 construct: purchased R&D Systems 1182-ZNC-010
Method: Ratio enzyme (units):peptide (moles) ˜1:33. […] Ratio enzyme (units):peptide (moles) ˜1:2.5.
15 μL aliquots (˜15 ng initial peptide) of the peptide-enzyme mixture were periodically withdrawn (t=0, 30 mins, 1 hr, 2 hr, 4 hr, 8 hr, 24 hr) and quenched immediately by addition to an equal volume (15 μL) of 5% TFA (v/v) in 1:1 water/acetonitrile to arrest proteolytic activity. 20 μL aliquots (˜10 ng initial peptide) were analyzed by LC/MS and/or analytical RP-HPLC as follows: LC/MS method: Agilent Polaris C8-A column (4.6×100 mm, 3 micron) eluted with a linear binary gradient of 10-90% MeCN (0.1% TFA v/v) in water (0.1% TFA v/v) over 30 mins at 1.5 mL min-1 at ambient temperature with detection by both UV absorption at 210 nm and ionization using a Waters 3100 mass detector (ESI+ mode). Peptide fragments deriving from enzymatic hydrolysis were identified by molecular weight, allowing location of the site of cleavage. Analytical RP-HPLC method: Agilent Polaris C8-A column (4.6×100 mm, 3 micron) eluted with a linear binary gradient of 10-90% MeCN (0.1% TFA v/v) in water (0.1% TFA v/v) over either 10 or 15 mins at 1.5 mL min^−1 at 40° C. with detection by UV absorption at 210 nm. Manual integration (AUC) allowed estimation of remaining intact peptide over the time course of the experiment.
25 μL aliquots (˜6 μg initial peptide) were analyzed by LC/MS and/or analytical RP-HPLC as follows: LC/MS method: Agilent Polaris C8-A column (4.6×100 mm, 3 micron) eluted with a linear binary gradient of 10-90% MeCN (0.1% TFA v/v) in water (0.1% TFA v/v) over 30 mins at 1.5 mL min^−1 at ambient temperature with detection by both UV absorption at 210 nm and ionization using a Waters 3100 mass detector (ESI^+ mode). Peptide fragments deriving from enzymatic hydrolysis were identified by molecular weight, allowing location of the site of cleavage. Analytical RP-HPLC method: Agilent Polaris C8-A column (4.6×100 mm, 3 micron) eluted with a linear binary gradient of 10-90% MeCN (0.1% TFA v/v) in water (0.1% TFA v/v) over either 10 or 15 mins at 1.5 mL min^−1 at 40° C. with detection by UV absorption at 210 nm. Manual integration (AUC) allowed estimation of remaining intact peptide over the time course of the experiment.

[7] = biological target: T4, human glucagon receptor (GCGR) (Homo sapiens, UniProt P47871); assay: cAMP assay, human GCGR cells; assay type: cell-based; conditions: Table 9, bis-lipidated peptides
T4 construct: expressed in transfected cells; host or cells: HEK293 cells or CHO cells
Method in brief: as §1

[8] = Proteolytic resistance to fasted-state simulated intestinal fluid (FASSIF/Pancreatin); assay type: in vitro ADME; conditions: 37° C., read-out: Percentage remaining intact peptide (AUC by RP-HPLC) upon incubation with fasted-state simulated intestinal fluid (FASSIF/P)
Method: (§2) A fresh suspension of FASSIF/P (Fasted-State Simulated Intestinal Fluid+USP Pancreatin®) was prepared according to that described by Galia, Nicolaides, Hörter, Lobenberg, Reppas and Dressman: Pharm. Res. 15 (1998) 698-705. The resulting preparation is proteolytically equivalent to ˜375 units/mL (375 kU/L) and was used immediately without storage. Peptides for evaluation (1.0 mg, ˜250 nmoles) were initially dissolved in pre-warmed FASSIF without Pancreatin® (200 μL) to which was added pre-warmed fresh FASSIF/Pancreatin® (100 μL) to initiate potential digestion. Following momentary vortexing of the Eppendorf reaction tube the mixture was incubated at 37° C. in a thermostatic waterbath for the duration of the experiment. 25 μL aliquots of the co-incubated peptide-enzyme mixture were periodically withdrawn (t=0, 5 m, 10 m, 15 m, 30 m, 1 h, 2 h) and quenched immediately by addition to a solution of 10% TFA in 1:1 water/acetonitrile (75 μL) to arrest proteolytic activity.

[9] = tested on: FASSIF/P (Fasted-State Simulated Intestinal Fluid+USP Pancreatin®); assay: as above; assay type: in vitro ADME; conditions: t = 0; 37° C.
Method: as §2

GLP-1R (INS1e cells) = biological target: T5, GLP-1R (INS1e cells) (Rattus norvegicus, UniProt P32301); assay: INS1e assay, cAMP activity at GLP-1R; assay type: cell-based; conditions: Table 10, bis-lipidated peptides, mean of n1 and n2, read-out: INS1e assay EC50 Mean pM GLP-1R
T5 construct: endogenous in cells; host or cells: INS1e cells
T5 sequence (P32301 22-463): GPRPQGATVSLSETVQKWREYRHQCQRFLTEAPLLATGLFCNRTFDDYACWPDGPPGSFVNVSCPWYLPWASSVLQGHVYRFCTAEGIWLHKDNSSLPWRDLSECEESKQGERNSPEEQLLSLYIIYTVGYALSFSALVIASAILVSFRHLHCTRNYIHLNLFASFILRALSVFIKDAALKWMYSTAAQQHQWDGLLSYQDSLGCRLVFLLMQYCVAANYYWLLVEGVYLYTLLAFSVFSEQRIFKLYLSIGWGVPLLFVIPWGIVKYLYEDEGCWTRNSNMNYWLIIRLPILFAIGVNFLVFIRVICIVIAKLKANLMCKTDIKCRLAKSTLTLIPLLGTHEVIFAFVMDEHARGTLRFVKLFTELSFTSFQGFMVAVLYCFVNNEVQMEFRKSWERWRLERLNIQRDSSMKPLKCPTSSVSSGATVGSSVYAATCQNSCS

[10] = biological target: T6, human GLP-1 receptor (GLP-1R) (Homo sapiens, UniProt P43220); assay: cAMP assay, human GLP-1R cells; assay type: cell-based; conditions: Table 9, bis-lipidated peptides; mean of n1 and n2; read-out: Primary assay EC50 Mean pM GLP-1R
T6 construct: expressed in transfected cells; host or cells: HEK293 cells or CHO cells
Method in brief: as §1

[11] = first replicate, read-out: Primary assay EC50 GIP-R (n1)
[12] = second replicate, read-out: Primary assay EC50 GIP-R (n2)
[13] = first replicate, read-out: Primary assay EC50 Gluc-R (n1)
[14] = second replicate, read-out: Primary assay EC50 Gluc-R (n2)

T4 sequence (P47871 26-477): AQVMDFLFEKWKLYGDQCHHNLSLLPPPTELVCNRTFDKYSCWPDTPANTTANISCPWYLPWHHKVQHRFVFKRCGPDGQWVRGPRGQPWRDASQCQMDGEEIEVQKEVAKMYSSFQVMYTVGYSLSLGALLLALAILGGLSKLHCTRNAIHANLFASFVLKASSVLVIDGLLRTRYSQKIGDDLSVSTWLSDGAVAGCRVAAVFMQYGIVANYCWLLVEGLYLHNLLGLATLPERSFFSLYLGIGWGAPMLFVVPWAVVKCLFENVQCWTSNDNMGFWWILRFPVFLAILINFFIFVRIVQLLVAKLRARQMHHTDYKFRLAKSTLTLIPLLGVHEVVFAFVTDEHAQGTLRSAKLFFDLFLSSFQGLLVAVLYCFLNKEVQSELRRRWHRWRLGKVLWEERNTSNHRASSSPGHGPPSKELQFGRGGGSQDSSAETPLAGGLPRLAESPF
porcine pancreatic trypsin, sequence (P00761 9-231): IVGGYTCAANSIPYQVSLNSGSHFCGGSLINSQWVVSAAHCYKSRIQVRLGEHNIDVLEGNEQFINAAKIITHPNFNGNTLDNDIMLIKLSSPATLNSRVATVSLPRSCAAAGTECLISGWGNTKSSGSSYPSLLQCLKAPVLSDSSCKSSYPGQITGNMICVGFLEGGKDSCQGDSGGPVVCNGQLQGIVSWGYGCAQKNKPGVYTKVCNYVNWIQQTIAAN
T1 sequence (P00791 60-385): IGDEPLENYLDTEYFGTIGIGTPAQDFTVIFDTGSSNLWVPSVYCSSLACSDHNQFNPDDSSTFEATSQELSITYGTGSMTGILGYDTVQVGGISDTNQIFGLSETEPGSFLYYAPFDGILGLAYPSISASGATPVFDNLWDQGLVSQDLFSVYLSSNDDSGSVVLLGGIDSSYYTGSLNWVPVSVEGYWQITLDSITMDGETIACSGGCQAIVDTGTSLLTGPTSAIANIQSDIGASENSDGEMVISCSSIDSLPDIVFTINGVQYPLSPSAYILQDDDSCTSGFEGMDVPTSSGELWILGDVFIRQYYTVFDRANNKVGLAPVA
T6 sequence (P43220 24-463): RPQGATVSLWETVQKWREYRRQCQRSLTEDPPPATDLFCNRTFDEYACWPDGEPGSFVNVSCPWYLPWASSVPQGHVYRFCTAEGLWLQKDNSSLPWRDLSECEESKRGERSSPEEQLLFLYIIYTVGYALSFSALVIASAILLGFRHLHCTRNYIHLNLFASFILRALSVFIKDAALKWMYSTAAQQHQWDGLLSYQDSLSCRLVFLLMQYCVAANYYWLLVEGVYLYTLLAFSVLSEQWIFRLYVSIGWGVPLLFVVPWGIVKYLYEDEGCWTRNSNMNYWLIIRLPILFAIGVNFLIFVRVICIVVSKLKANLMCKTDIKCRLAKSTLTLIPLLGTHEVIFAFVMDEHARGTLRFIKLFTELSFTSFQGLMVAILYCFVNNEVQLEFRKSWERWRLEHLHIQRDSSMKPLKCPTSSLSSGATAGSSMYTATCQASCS
T3 sequence (P08473 whole entry): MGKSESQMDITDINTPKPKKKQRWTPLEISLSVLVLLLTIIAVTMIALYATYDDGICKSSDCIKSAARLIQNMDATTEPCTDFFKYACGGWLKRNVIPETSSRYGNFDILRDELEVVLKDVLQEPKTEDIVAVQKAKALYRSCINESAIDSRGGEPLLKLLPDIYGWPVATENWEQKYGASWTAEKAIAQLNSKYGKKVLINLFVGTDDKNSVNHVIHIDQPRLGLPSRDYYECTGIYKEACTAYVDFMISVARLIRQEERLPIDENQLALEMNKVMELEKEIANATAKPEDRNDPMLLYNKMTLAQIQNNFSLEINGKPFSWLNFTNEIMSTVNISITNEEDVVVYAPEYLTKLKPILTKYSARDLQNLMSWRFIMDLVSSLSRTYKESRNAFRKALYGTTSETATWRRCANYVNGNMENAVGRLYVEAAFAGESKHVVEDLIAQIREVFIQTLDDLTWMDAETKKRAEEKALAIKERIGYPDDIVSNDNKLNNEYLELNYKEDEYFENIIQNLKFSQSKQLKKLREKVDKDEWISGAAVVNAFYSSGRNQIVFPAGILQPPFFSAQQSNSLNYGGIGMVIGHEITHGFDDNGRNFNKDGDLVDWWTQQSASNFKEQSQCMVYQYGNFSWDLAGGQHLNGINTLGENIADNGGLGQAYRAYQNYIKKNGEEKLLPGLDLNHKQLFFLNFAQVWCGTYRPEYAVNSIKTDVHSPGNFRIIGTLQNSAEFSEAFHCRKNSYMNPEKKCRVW

Percentage remaining intact peptide (AUC by RP-HPLC) upon incubation with FASSIF activated with 100 μg/mL enterokinase [1]: 100%
Percentage remaining intact peptide (AUC by RP-HPLC) upon incubation with pepsin [2]: 100%
remaining at 0.5 h [3]: 97.1%
remaining at 1 h [3]: 95.8%
remaining at 2 h [3]: 96%
remaining at 4 h [3]: 94.2%
remaining at 8 h [3]: 92.6%
remaining at 24 h [3]: 89.4%
Percentage remaining intact peptide (AUC by RP-HPLC) upon incubation with α-chymotrypsin [4]: 100%
Percentage remaining intact peptide (AUC by RP-HPLC) upon incubation with trypsin [5]: 100%
EC50 [6, 11]: ≥ 22.8 nM
EC50 [6, 12]: ≥ 22.8 nM
Percentage remaining peptide (AUC at specified time-point by RP-HPLC) upon incubation with neprilysin, t = 0 (recombinant Neprilysin): 100%
EC50 [7, 13]: ≥ 22.8 nM
EC50 [7, 14]: ≥ 22.8 nM
SMILES: CCCCCCCCCCCC(=O)N[C@@H](CCC(=O)NCCOCCOCC(=O)NCCOCCOCC(=O)NCCCC[C@H](NC(=O)[C@H](C)NC(=O)[C@@H](NC(=O)[C@H](Cc1ccccc1)NC(=O)[C@H](CCC(=O)O)NC(=O)[C@](C)(CCCCN)NC(=O)[C@H](C)NC(=O)[C@H](C)NC(=O)[C@H](CCC(=O)O)NC(=O)CNC(=O)[C@H](CCC(=O)O)NC(=O)[C@H](CCCCNC(=O)COCCOCCNC(=O)COCCOCCNC(=O)CC[C@H](NC(=O)CCCCCCCCCCC)C(=O)O)NC(=O)[C@H](Cc1ccc(O)cc1)NC(=O)[C@H](CO)NC(=O)[C@](C)(CO)NC(=O)[C@@H](NC(=O)[C@H](CC(=O)O)NC(=O)[C@H](CO)NC(=O)[C@@H](NC(=O)[C@](C)(Cc1ccccc1)NC(=O)[C@H](CO)NC(=O)CNC(=O)[C@H](CCC(=O)O)NC(=O)C(C)(C)NC(=O)[C@@H](N)Cc1c[nH]cn1)[C@@H](C)O)C(C)C)[C@@H](C)CC)C(=O)N[C@H](C(=O)N[C@H](C(=O)N[C@@H](CCC(=O)O)C(=O)NCC(=O)NCC(N)=O)C(C)C)C(C)C)C(=O)O [compound 269] (H-H[Aib]EGS[αMeF]TSDV[αMeS]SYK([AEEA-AEEA-γGlu-Lauroyl])EGEAA[αMeK]EFIAK([AEEA-AEEA-γGlu-Lauroyl])VVEGG-NH2; N-terminus assumed)

Percentage remaining intact peptide (AUC by RP-HPLC) upon incubation with FASSIF activated with 100 μg/mL enterokinase [1]: 100%
remaining at 5 min, […] ([8]; t = 5 m): 99.5%
remaining at 10 min, […] ([8]; t = 10 m): 99%
remaining at 0.25 h, […] ([8]; t = 15 m): 99.4%
remaining at 0.5 h, […] ([8]; t = 30 m): 95.7%
remaining at 1 h, […] ([8]; t = 1 h): 88.7%
remaining at 2 h, […] ([8]; t = 2 h): 60.4%
Percentage remaining intact peptide (AUC by RP-HPLC) upon incubation with fasted-state simulated intestinal fluid (FASSIF/P) [9]: 100%
EC50 (GLP-1R (INS1e cells)): 116 pM
EC50 [10]: 3.9 pM
EC50 [6, 11]: ≥ 21.5 nM
EC50 [6, 12]: ≥ 21.5 nM
EC50 [7, 13]: ≥ 21.5 nM
EC50 [7, 14]: ≥ 21.5 nM
SMILES: CCCCCCCCCCCC(=O)N[C@@H](CCC(=O)NCCOCCOCC(=O)NCCOCCOCC(=O)NCCCC[C@H](NC(=O)[C@H](C)NC(=O)[C@@H](NC(=O)[C@](C)(Cc1ccccc1)NC(=O)[C@H](CCC(=O)O)NC(=O)[C@](C)(CCCCN)NC(=O)[C@H](C)NC(=O)[C@H](C)NC(=O)[C@H](CCC(=O)O)NC(=O)CNC(=O)[C@H](CCC(=O)O)NC(=O)[C@H](CC(C)C)NC(=O)[C@H](CCCCNC(=O)COCCOCCNC(=O)COCCOCCNC(=O)CC[C@H](NC(=O)CCCCCCCCCCC)C(=O)O)NC(=O)[C@H](CO)NC(=O)[C@](C)(CO)NC(=O)[C@@H](NC(=O)[C@H](CC(=O)O)NC(=O)[C@H](CO)NC(=O)[C@@H](NC(=O)[C@](C)(Cc1ccccc1)NC(=O)[C@H](CO)NC(=O)CNC(=O)[C@H](CCC(=O)O)NC(=O)C(C)(C)NC(=O)[C@@H](N)Cc1c[nH]cn1)[C@@H](C)O)C(C)C)[C@@H](C)CC)C(=O)N[C@H](C(=O)N[C@H](C(=O)N[C@@H](CCC(=O)O)C(=O)NCC(=O)NCC(N)=O)C(C)C)C(C)C)C(=O)O [compound 405] (H-H[Aib]EGS[αMeF]TSDV[αMeS]SK([AEEA-AEEA-γGlu-Lauroyl])LEGEAA[αMeK]E[αMeF]IAK([AEEA-AEEA-γGlu-Lauroyl])VVEGG-NH2; N-terminus assumed)
